The source of these data is patent US10633704B2, “Diagnostic and immunotherapy compositions and methods for disease states mediated by inhibitor-resistant CD8 T-cells” (priority 2010, dated 2020).

This test has as its system CD8bm12-1 T cell clone. Briefly: Proliferation assay (3H-thymidine) of CsA/RAPA-resistant CD8 T cell clone CD8bm12-1 activated by immobilized anti-CD3 without or with anti-CD28. It counts as cell-based, mouse (C57BL/6). The procedure: Proliferation assays were done with anti-CD3 (145-2Cl 1) without or with anti-CD28 (37.51). Antibodies in 50 μl of PBS/well were used to coat 96-well tissue culture plates (Costar) overnight at 4° C. Antibodies were shaken off and wells washed 1× with 150 μl of RPMI complete media prior to their use in proliferation assays. Experimental wells were pulsed with 0.5 μCi/well ^3H-thymidine (ICN, Costa Mesa, Calif.) for 10-12 hours at 24-36 or 36-48 hours of the culture cycle. Cyclosporine A (Sigma Chemical Co.; St. Louis, Mo.) dissolved in 200 proof ethanol and CH-223191 (Calbiochem; San Diego, Calif.) dissolved in dimethylsulfoxide were used at indicated concentrations. The no treatment controls in each experiment included vehicle controls for both ethanol and dimethylsulfoxide.
FIGS. 6A and 6B show proliferation plots of CD8bm1 (▪) and CD8bm12-1 (●), both activated by immobilized anti-CD3 and exposed to a full range of cyclosporine A (the results shown in FIGS. 6A and 6B result from two separate experiments conducted).

“Also recorded” adds a separate entry of the source.

For `Cc1ccccc1N=Nc1ccc(NC(=O)c2ccnn2C)c(C)c1` [CH-223191], the “effect on proliferation of CD8bm12-1” value runs as follows: (media with 1 ug/ml CsA, anti-CD3, CH-223191 3 uM) “no effect”; (media with 1 ug/ml CsA, anti-CD3, CH-223191 10 uM) “moderate inhibitory effect”; (media with 1 ug/ml CsA, anti-CD3, CH-223191 30 uM) “dramatic inhibitory effect; also recorded: completely blocked”; (media with 1 ug/ml CsA, anti-CD3 and anti-CD28, CH-223191 30 uM) “completely blocked proliferation”; (media without CsA, anti-CD3, CH-223191 at 30 uM, 10 uM or 3 uM) “no discernable negative effect”; (media without CsA, anti-CD3 and anti-CD28, CH-223191) “little discernable effect”.
